# Data taken from PMC12138715, “Exploring Boswellia serrata Triterpenes: A New Frontier in Leukemia Inhibitory Factor Receptor Modulation” (ACS Omega, 2025).
# Assays:
# [1] = target: T1, leukemia inhibitory factor receptor (LIFR) (Homo sapiens, UniProt P42702); assay: cell-free AlphaScreen LIF/LIFR binding inhibition
# T1 construct: Recombinant human LIFR (His-Tag)
# [2] = tested on: leukemia inhibitory factor receptor (LIFR); assay: cells; set-up: LIFR/STAT3 luciferase reporter transactivation, LIF 10 ng/mL stimulated, Renilla normalized; conditions: Homo sapiens, HepG2, 24 h; LIF 10 ng/mL stimulated; read-out: Transactivation Inhibition (%), 50 µM
# Procedure: Luciferase Reporter Gene Assay To evaluate the LIFR/STAT3 signaling, HepG2 (HB, 8065 from ATCC), were seeded at 7.5 × 10^4 cells/well in a 24-well plate and maintained at 37 °C and 5% CO2 in E-MEM added with 10% FBS, 1% glutamine, and 1% penicillin/streptomycin. On day-1, cells were transiently transfected with the reporter plasmid pGL4.47[luc2P/SIE/Hygro] (CAT no. E4041 Promega, Madison, WI, USA), a vector encoding the hLIFR (CAT no. RC226327) and CD130 (IL6ST) (CAT no. RC215123, OriGene Technologies, Inc. Rockville, MD USA), and finally a vector encoding the human Renilla luciferase gene (pGL4.70) (Promega, Madison, WI, USA). On day-2, cells were primed with the cytokine LIF (10 ng/mL) alone or in combination with different compounds at the concentrations of 10 μM and 50 μM. Then, after 24 h, cellular lysate was assayed for luciferase and Renilla activities using the Firefly & Renilla Luciferase Single TubeAssay Kit (Biotium, Fremont, CA). Luminescence was measured using Glomax 20/20 luminometer (Promega, Madison, WI, USA). Luciferase activities were normalized with Renilla activities.
# [3] = target: T1, leukemia inhibitory factor receptor (LIFR); assay: biochemical; set-up: Alpha Screen inhibition of biotinylated LIF binding to His-tagged human LIFR; conditions: LIF/LIFR binding
# Procedure: Amplified Luminescent Proximity Homogeneous Assay on LIF-LIFR Recombinant human LIFR (His-Tag) and LIF (biotinylated) were purchased from Sino Biologicals (Sino Biological Europe GmbH, Dusseldorf, Germany) and R&D Systems (Abingdon, UK), respectively, and both were reconstituted as required by the manufacturer. Inhibition of LIFR/LIF binding was measured by Alpha Screen, in white, low-volume, 384-well AlphaPlates (Revvity, Italy) using a final volume of 15 μL and an assay buffer containing 25 mM Hepes (pH 7.4), 100 mM NaCl, and 0.005% Kathon. The concentration of DMSO in each well was maintained at 5% vol/vol. LIFR (His-Tag, final concentration 4.5 nM) was incubated with either the compounds or DMSO for 45 min under continuous shaking. Then, LIF was added (biotinylated, final concentration 9 nM), and the samples were incubated for 15 min prior to adding nickel chelate acceptor beads (final concentration 20 ng/μL) for 30 min. Then, streptavidin donor beads were added (final concentration 20 ng/μL), and the plate was incubated in the dark for 2 h and then read in a Victor Nivo (Revvity, Italy) Multimode Microplate Reader.
# [4] = target: T1, leukemia inhibitory factor receptor (LIFR); assay: cell-free AlphaScreen LIF/LIFR binding inhibition; LIFR transactivation in HepG2
# T1 sequence (P42702 45-1097): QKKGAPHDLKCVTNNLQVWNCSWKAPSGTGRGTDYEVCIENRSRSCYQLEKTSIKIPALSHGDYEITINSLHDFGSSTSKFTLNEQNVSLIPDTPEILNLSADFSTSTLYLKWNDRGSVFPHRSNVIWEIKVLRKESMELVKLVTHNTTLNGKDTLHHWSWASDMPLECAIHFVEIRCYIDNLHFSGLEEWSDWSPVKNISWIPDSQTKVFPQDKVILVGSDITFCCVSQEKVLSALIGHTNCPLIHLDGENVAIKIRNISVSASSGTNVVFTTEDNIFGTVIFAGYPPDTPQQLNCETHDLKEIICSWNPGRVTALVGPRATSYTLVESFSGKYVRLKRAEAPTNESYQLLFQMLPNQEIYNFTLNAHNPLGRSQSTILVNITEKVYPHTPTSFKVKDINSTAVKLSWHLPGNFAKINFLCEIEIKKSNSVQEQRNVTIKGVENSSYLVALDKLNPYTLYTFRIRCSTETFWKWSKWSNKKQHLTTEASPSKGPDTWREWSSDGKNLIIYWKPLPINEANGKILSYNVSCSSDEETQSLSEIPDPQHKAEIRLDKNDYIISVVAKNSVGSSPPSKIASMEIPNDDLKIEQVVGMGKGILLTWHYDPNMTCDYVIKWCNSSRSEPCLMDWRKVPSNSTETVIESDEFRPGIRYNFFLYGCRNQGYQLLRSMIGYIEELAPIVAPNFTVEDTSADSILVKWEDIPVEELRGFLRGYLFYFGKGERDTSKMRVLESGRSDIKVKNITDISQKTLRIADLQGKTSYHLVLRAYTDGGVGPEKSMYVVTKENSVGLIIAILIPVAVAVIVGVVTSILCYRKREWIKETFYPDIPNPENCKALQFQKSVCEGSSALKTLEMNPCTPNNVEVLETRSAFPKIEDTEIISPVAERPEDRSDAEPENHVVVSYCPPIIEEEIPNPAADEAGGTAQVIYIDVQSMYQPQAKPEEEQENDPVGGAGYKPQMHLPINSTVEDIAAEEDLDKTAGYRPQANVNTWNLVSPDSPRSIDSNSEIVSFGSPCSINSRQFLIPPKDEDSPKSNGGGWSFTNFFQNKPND
# T1 sequence (P15018 23-202 partner): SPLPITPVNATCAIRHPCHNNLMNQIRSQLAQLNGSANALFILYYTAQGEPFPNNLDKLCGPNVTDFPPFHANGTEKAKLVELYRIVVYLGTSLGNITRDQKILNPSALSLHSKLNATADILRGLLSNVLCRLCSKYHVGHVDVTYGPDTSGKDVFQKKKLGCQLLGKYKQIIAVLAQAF
Compound,inhibition at 50 µM [2],inhibition at 10 µM [3],inhibition at 50 µM [3],other results
"CC(C)=CCC[C@H](C(=O)O)[C@@H]1CC[C@]2(C)C3=C(CC[C@@]12C)[C@@]1(C)CC[C@H](O)C(C)(C)[C@@H]1CC3 [compound 16, 3β-Hydroxytirucalla-8,24-dien-21-oic Acid]",–,–,–,IC50 [1]: < 10 µM
"CC(=O)O[C@@H]1CC[C@@]2(C)[C@@H](CC[C@]3(C)[C@@H]2CC=C2[C@@H]4CC(C)(C)CC[C@]4(C)CC[C@]23C)[C@@]1(C)C(=O)O [compound 3, (4R)-3α-Acetylolean-12-en-24-oic Acid]",–,–,–,IC50 ([1]; read-out: IC50): < 10 µM
"CC(=O)O[C@@H]1CC[C@@]2(C)[C@@H](CC[C@]3(C)[C@@H]2CC=C2[C@@H]4[C@@H](C)[C@H](C)CC[C@]4(C)CC[C@]23C)[C@@]1(C)C(=O)O [compound 4, (4R)-3α-Acetylurs-12-en-24-oic Acid]",–,–,–,IC50 ([1]; read-out: IC50): < 10 µM
"CC1CCC2(C)CCC3(C)C(=CCC4C5(C)CCC(O)C(C)(C(=O)NCC(=O)O)C5CCC43C)C2C1C (stereo not shown) [compound 24, 24]",74.8%,48.7%,86.9%,–
"CC(C)=CCC[C@H](C(=O)O)[C@@H]1CC[C@]2(C)C3=C(CC[C@@]12C)[C@@]1(C)CCC(=O)C(C)(C)[C@@H]1CC3 [compound 17, 3-Oxotirucalla-8,24-dien-21-oic Acid]",–,–,–,IC50 [1]: < 10 µM
"CC(C)=CCC[C@H](C(=O)O)[C@@H]1CC[C@]2(C)C3=C(CC[C@@]12C)[C@@]1(C)CC[C@@H](O)C(C)(C)[C@@H]1CC3 [compound 15, 3α-Hydroxytirucalla-8,24-dien-21-oic Acid]",–,–,–,IC50 [1]: < 10 µM
"CC1(C)CCC2(C)CCC3(C)C(=CCC4C5(C)CCC(O)C(C)(C(=O)NCC(=O)O)C5CCC43C)C2C1 (stereo not shown) [compound 22, 22]",58.3%,51.3%,83.7%,–
"CC1CCC2(C)CCC3(C)C(=CCC4C5(C)CCC(O)C(C)(C(=O)NCCS(=O)(=O)O)C5CCC43C)C2C1C (stereo not shown) [compound 23, 23]",70.2%,52.9%,88.5%,–
"CC1(C)CC[C@]2(C)CC[C@]3(C)C(=CC[C@@H]4[C@@]5(C)CC[C@@H](O)[C@](C)(C(=O)O)[C@@H]5CC[C@]43C)[C@@H]2C1 [compound 1, (4R)-3α-Hydroxyolean-12-en-24-oic Acid]",–,–,–,IC50 [4]: < 10 µM
"C[C@H]1[C@H](C)CC[C@]2(C)CC[C@]3(C)C(=CC[C@@H]4[C@@]5(C)CC[C@@H](O)[C@](C)(C(=O)O)[C@@H]5CC[C@]43C)[C@H]12 [compound 2, (4R)-3α-Hydroxyurs-12-en-24-oic Acid]",–,–,–,IC50 [4]: < 10 µM
"CC1(C)CCC2(C)CCC3(C)C(=CCC4C5(C)CCC(O)C(C)(C(=O)NCCS(=O)(=O)O)C5CCC43C)C2C1 (stereo not shown) [compound 21, 21]",68.8%,45.4%,67.7%,–
